# Laboratory results as given in patent US9914730B2, “Azaquinazoline inhibitors of Atypical protein Kinase C” (Ignyta, Inc., priority 2012, dated 2018).
# Target: T1, full-length human PKCι (Homo sapiens, UniProt P41743)
# T1 construct: Recombinant, full-length human PKCι expressed in Sf21 insect cells is also commercially available; purchased; host or cells: Sf21 insect cells
# T1 sequence (P41743 1-596): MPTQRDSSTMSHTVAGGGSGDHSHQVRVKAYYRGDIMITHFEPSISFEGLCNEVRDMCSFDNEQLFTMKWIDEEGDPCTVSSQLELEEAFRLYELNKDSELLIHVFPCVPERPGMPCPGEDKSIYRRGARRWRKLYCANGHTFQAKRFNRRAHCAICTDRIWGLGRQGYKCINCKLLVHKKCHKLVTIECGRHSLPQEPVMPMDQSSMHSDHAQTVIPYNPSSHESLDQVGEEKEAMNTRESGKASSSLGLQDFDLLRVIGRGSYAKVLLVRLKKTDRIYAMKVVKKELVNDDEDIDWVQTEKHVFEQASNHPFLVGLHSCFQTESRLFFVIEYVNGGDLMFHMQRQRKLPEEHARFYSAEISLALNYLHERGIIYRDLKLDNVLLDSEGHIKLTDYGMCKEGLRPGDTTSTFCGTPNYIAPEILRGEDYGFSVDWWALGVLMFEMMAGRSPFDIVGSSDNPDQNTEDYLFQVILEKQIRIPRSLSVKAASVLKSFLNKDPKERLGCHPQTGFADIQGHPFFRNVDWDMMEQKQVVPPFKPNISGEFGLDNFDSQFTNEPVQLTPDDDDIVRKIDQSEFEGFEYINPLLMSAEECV
# Assay: PKCι IC50 IMAP assay, full-length PKCι at 150 μM ATP
# Format: biochemical
# Conditions: read-out: IC50 in IMAP assay against full length PKCi at 150 μM ATP
# Summary of the method: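 Full-length hPKCι (Sf21) ~15 pM; 5FAM-peptide 100 nM; ATP 150 μM (5× KM^APP); tris pH7.5/MgCl2/EGTA/DTT/Triton, 4% DMSO; 60 min RT; IMAP stop, 2 h; FP 485/530 nm; IC50 from % inhibition curves.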
row,Compound,IC50 [nM]
1,"O=C(Nc1cc(-c2nc(N[C@@H]3CCNC3)c3ccncc3n2)ccn1)c1cnccn1 [Example 307, Pyrazine-2-carboxylic acid {4-[4-((R)-pyrrolidin-3-ylamino)-pyrido[3,4-d]pyrimidin-2-yl]-pyridin-2-yl}-amide]",100 to 1000
2,"NC(=O)c1cccc(Nc2cc(-c3nc(N[C@@H]4CCNC4)c4ccncc4n3)ccn2)c1 [Example 308, 3-{4-[4-((R)-Pyrrolidin-3-ylamino)-pyrido[3,4-d]pyrimidin-2-yl]-pyridin-2-ylamino}-benzamide]",100 to 1000
3,"Nc1cccc(C(=O)Nc2cc(-c3nc(N[C@@H]4CCNC4)c4ccncc4n3)ccn2)c1 [Example 309, 3-Amino-N-{4-[4-((R)-pyrrolidin-3-ylamino)-pyrido[3,4-d]pyrimidin-2-yl]-pyridin-2-yl}-benzamide]",100 to 1000
4,"NC(=O)COc1ccc(Nc2cc(-c3nc(N[C@@H]4CCNC4)c4ccncc4n3)ccn2)cc1 [Example 310, 2-(4-{4-[4-((R)-Pyrrolidin-3-ylamino)-pyrido[3,4-d]pyrimidin-2-yl]-pyridin-2-ylamino}-phenoxy)-acetamide]",100 to 1000
5,"NC(=O)Cc1cccc(Nc2cc(-c3nc(N[C@@H]4CCNC4)c4ccncc4n3)ccn2)c1 [Example 316, 2-(3-{4-[4-((R)-Pyrrolidin-3-ylamino)-pyrido[3,4-d]pyrimidin-2-yl]-pyridin-2-ylamino}-phenyl)-acetamide]",100 to 1000
6,"Nc1cccc(CC(=O)Nc2cc(-c3nc(N[C@@H]4CCNC4)c4ccncc4n3)ccn2)c1 [Example 317, 2-(3-Amino-phenyl)-N-{4-[4-((R)-pyrrolidin-3-ylamino)-pyrido[3,4-d]pyrimidin-2-yl]-pyridin-2-yl}-acetamide]",100 to 1000
7,"c1cc2c(N[C@@H]3CCNC3)nc(-c3ccnc(Nc4ccc(Cn5ccnc5)cc4)c3)nc2cn1 [Example 322, {2-[2-(4-Imidazol-1-ylmethyl-phenylamino)-pyridin-4-yl]-pyrido[3,4-d]pyrimidin-4-yl}-(R)-pyrrolidin-3-yl-amine]",100 to 1000
8,"COc1cncc2nc(-c3ccnc(NC(=O)Cc4cccc(N)c4)c3)nc(N[C@@H]3CCNC3)c12 [Example 325, 2-(3-Amino-phenyl)-N-{4-[5-methoxy-4-((R)-pyrrolidin-3-ylamino)-pyrido[3,4-d]pyrimidin-2-yl]-pyridin-2-yl}-acetamide]",10000 to 40000
9,"COc1cncc2nc(-c3ccnc(Nc4ccc(CC(N)=O)cc4)c3)nc(N[C@@H]3CCNC3)c12 [Example 326, 2-(4-{4-[5-Methoxy-4-((R)-pyrrolidin-3-ylamino)-pyrido[3,4-d]pyrimidin-2-yl]-pyridin-2-ylamino}-phenyl)-acetamide]",100 to 1000
10,"N#Cc1ccnc2c1ccn2-c1cc(-c2nc(N[C@@H]3CCNC3)c3ccncc3n2)ccn1 [Example 328, 1-{4-[4-((R)-Pyrrolidin-3-ylamino)-pyrido[3,4-d]pyrimidin-2-yl]-pyridin-2-yl}-1H-pyrrolo[2,3-b]pyridine-4-carbonitrile]",1000 to 10000
11,"COc1cncc2nc(-c3ccnc(Nc4ccc(N5CCN(C)CC5)nc4)c3)nc(N[C@@H]3CCNC3)c12 [Example 331, (5-Methoxy-2-{2-[6-(4-methyl-piperazin-1-yl)-pyridin-3-ylamino]-pyridin-4-yl}-pyrido[3,4-d]pyrimidin-4-yl)-(R)-pyrrolidin-3-yl-amine]",< 100
12,"COc1cncc2nc(-c3ccnc(Nc4cc(C#N)ccn4)c3)nc(N[C@@H]3CCNC3)c12 [Example 332, 2-{4-[5-Methoxy-4-((R)-pyrrolidin-3-ylamino)-pyrido[3,4-d]pyrimidin-2-yl]-pyridin-2-ylamino}-isonicotinonitrile]",< 100
13,"COc1cncc2nc(-c3ccnc(Nc4ccc(Cn5ccnc5)cc4)c3)nc(N[C@@H]3CCNC3)c12 [Example 333, {2-[2-(4-Imidazol-1-ylmethyl-phenylamino)-pyridin-4-yl]-5-methoxy-pyrido[3,4-d]pyrimidin-4-yl}-(R)-pyrrolidin-3-yl-amine]",1000 to 10000
14,"O=C(Cc1ccccc1)Nc1cc(-c2nc(N[C@@H]3CCNC3)c3ccncc3n2)ccn1 [Example 334, 2-Phenyl-N-{4-[4-((R)-pyrrolidin-3-ylamino)-pyrido[3,4-d]pyrimidin-2-yl]-pyridin-2-yl}-acetamide]",1000 to 10000
15,"COc1ccc(CC(=O)Nc2cc(-c3nc(N[C@@H]4CCNC4)c4ccncc4n3)ccn2)cc1 [Example 335, 2-(4-Methoxy-phenyl)-N-{4-[4-((R)-pyrrolidin-3-ylamino)-pyrido[3,4-d]pyrimidin-2-yl]-pyridin-2-yl}-acetamide]",100 to 1000
16,"COc1ccccc1CC(=O)Nc1cc(-c2nc(N[C@@H]3CCNC3)c3ccncc3n2)ccn1 [Example 336, 2-(2-Methoxy-phenyl)-N-{4-[4-((R)-pyrrolidin-3-ylamino)-pyrido[3,4-d]pyrimidin-2-yl]-pyridin-2-yl}-acetamide]",100 to 1000
17,"COc1cccc(CC(=O)Nc2cc(-c3nc(N[C@@H]4CCNC4)c4ccncc4n3)ccn2)c1 [Example 337, 2-(3-Methoxy-phenyl)-N-{4-[4-((R)-pyrrolidin-3-ylamino)-pyrido[3,4-d]pyrimidin-2-yl]-pyridin-2-yl}-acetamide]",< 100

# Continued, values first:
row,IC50 [nM],Compound
1,< 100,"NC(=O)COc1cccc(Nc2cc(-c3nc(N[C@@H]4CCNC4)c4ccncc4n3)ccn2)c1 [Example 311, 2-(3-{4-[4-((R)-Pyrrolidin-3-ylamino)-pyrido[3,4-d]pyrimidin-2-yl]-pyridin-2-ylamino}-phenoxy)-acetamide]"
2,< 100,"NC(=O)Cc1ccc(Nc2cc(-c3nc(N[C@@H]4CCNC4)c4ccncc4n3)ccn2)cc1 [Example 313, 2-(4-{4-[4-((R)-Pyrrolidin-3-ylamino)-pyrido[3,4-d]pyrimidin-2-yl]-pyridin-2-ylamino}-phenyl)-acetamide]"
3,< 100,"Nc1ccc(CC(=O)Nc2cc(-c3nc(N[C@@H]4CCNC4)c4ccncc4n3)ccn2)cc1 [Example 314, 2-(4-Amino-phenyl)-N-{4-[4-((R)-pyrrolidin-3-ylamino)-pyrido[3,4-d]pyrimidin-2-yl]-pyridin-2-yl}-acetamide]"
4,< 100,"c1ccc(-c2ccc(Nc3cc(-c4nc(N[C@@H]5CCNC5)c5ccncc5n4)ccn3)nc2)cc1 [Example 318, {2-[2-(5-Phenyl-pyridin-2-ylamino)-pyridin-4-yl]-pyrido[3,4-d]pyrimidin-4-yl}-(R)-pyrrolidin-3-yl-amine]"
5,< 100,"c1cc2c(N[C@@H]3CCNC3)nc(-c3ccnc(Nc4ccc(N5CCOCC5)nc4)c3)nc2cn1 [Example 319, {2-[2-(6-Morpholin-4-yl-pyridin-3-ylamino)-pyridin-4-yl]-pyrido[3,4-d]pyrimidin-4-yl}-(R)-pyrrolidin-3-yl-amine]"
6,< 100,"CN1CCN(c2ccc(Nc3cc(-c4nc(N[C@@H]5CCNC5)c5ccncc5n4)ccn3)cn2)CC1 [Example 320, (2-{2-[6-(4-Methyl-piperazin-1-yl)-pyridin-3-ylamino]-pyridin-4-yl}-pyrido[3,4-d]pyrimidin-4-yl)-(R)-pyrrolidin-3-yl-amine]"
7,< 100,"N#Cc1ccnc(Nc2cc(-c3nc(N[C@@H]4CCNC4)c4ccncc4n3)ccn2)c1 [Example 321, 2-{4-[4-((R)-Pyrrolidin-3-ylamino)-pyrido[3,4-d]pyrimidin-2-yl]-pyridin-2-ylamino}-isonicotinonitrile]"
8,< 100,"COc1cncc2nc(-c3ccnc(Nc4cccc(OCC(N)=O)c4)c3)nc(N[C@@H]3CCNC3)c12 [Example 323, 2-(3-{4-[5-Methoxy-4-((R)-pyrrolidin-3-ylamino)-pyrido[3,4-d]pyrimidin-2-yl]-pyridin-2-ylamino}-phenoxy)-acetamide]"
9,< 100,"COc1cncc2nc(-c3ccnc(Nc4cccc(CC(N)=O)c4)c3)nc(N[C@@H]3CCNC3)c12 [Example 324, 2-(3-{4-[5-Methoxy-4-((R)-pyrrolidin-3-ylamino)-pyrido[3,4-d]pyrimidin-2-yl]-pyridin-2-ylamino}-phenyl)-acetamide]"
10,< 100,"COc1cncc2nc(-c3ccnc(NC(=O)Cc4ccc(N)cc4)c3)nc(N[C@@H]3CCNC3)c12 [Example 327, 2-(4-Amino-phenyl)-N-{4-[5-methoxy-4-((R)-pyrrolidin-3-ylamino)-pyrido[3,4-d]pyrimidin-2-yl]-pyridin-2-yl}-acetamide]"
11,< 100,"COc1cncc2nc(-c3ccnc(Nc4ccc(-c5ccccc5)cn4)c3)nc(N[C@@H]3CCNC3)c12 [Example 329, {5-Methoxy-2-[2-(5-phenyl-pyridin-2-ylamino)-pyridin-4-yl]-pyrido[3,4-d]pyrimidin-4-yl}-(R)-pyrrolidin-3-yl-amine]"
12,< 100,"COc1cncc2nc(-c3ccnc(Nc4ccc(N5CCOCC5)nc4)c3)nc(N[C@@H]3CCNC3)c12 [Example 330, {5-Methoxy-2-[2-(6-morpholin-4-yl-pyridin-3-ylamino)-pyridin-4-yl]-pyrido[3,4-d]pyrimidin-4-yl}-(R)-pyrrolidin-3-yl-amine]"
